Laboratory results published in patent US20100062441A1, “C-MET MUTATIONS AND USES THEREOF” (priority 2007, published 2010).

Key:
SCCHN cell lines [1] = assay: Viability/growth by MTT and/or Cyquant; type: cell-based, human; settings: several cell lines
Source text: Specific inhibition of c-Met by small molecule inhibitors can also be determined. […] Both SU11274 (1st generation) and Compound X (3rd generation) were used to test for their respective inhibitory effects on SCCHN cell lines.

SCCHN cell lines [2] = assay: Cell motility and migration; type: cell-based, human
Source text: c-Met is known to have a significant role in cell scattering and possibly metastatic spread (Ren et al., Clin Cancer Res, 11, (17), 6190-7 (2005) and Endo, et al., Hum Pathol, 37, (8), 1111-6 (2006)). Here, the effects of c-Met suppression on cell motility and migration as a surrogate marker for metastatic spread was investigated. […] The degree of downstream modulation varied by cell line.

[3] = test system: melanoma cell lines that expressed c-Met; assay: Cell growth analysis (cell counting); type: cell-based; settings: Homo sapiens; 96 hrs, MEM with 10% serum
Experimental: (§1) For measuring the effect of SU11274 on growth of melanoma cells, MM-AN, MU, PM-WK, MM-RU, MM-MC and RPM-EP cells were plated at 6×10^4 cells in 60 mm dishes in MEM with 10% serum. After 24 hrs different concentrations of SU11274 were added and after 96 hrs cells were trypsinized and counted in a cell counter (Beckman Coulter). Each data point was repeated in triplicate.

MM-AN cells = assay: Apoptosis by propidium iodide FACS (sub G0/G1); type: cell-based, human
Experimental: MM-AN, MU, PM-WK, MM-RU, MM-MC, MM-LH and RPM-EP melanoma cells were grown in MEM (Cellgro, Hernon, Va.) with 10% FBS (Gemini Bioproducts, Woodland, Calif.). Triplicate melanoma cell cultures were grown in MEM with 10% FBS and treated with a final concentration of 5-10 μM of SU11274 or an equal volume of diluent (DMSO) as a control for 96 hrs. Cells were collected, stained with propidium iodide and analyzed with a Becton Dickinson FACS Scan and Cell Quest software.
SU11274, which is a highly specific inhibitor of c-Met, was tested on the six melanoma cell lines. […] By 96 hrs between 12 to 58% of cells in different melanoma cell lines appeared in the sub G0/G1 region of the FACS profile indicating apoptosis.

[4] = test system: MITF, tyrosinase, gp-100, MART-1; assay: Immunoblotting of melanoma differentiation proteins, densiometric analysis; type: cell-based, human; settings: 12 hrs after treatment; 10 μM SU11274
Source text: SU11274: [(3Z)-N-(3-chlorophenyl)-3-({3,5-dimethyl-4-[(4-methylpiperazin-1-yl)carbonyl]-1H-pyrrol-2-yl}methylene)-N-methyl-2-oxo-2,3-dihydro-1H-indole-5-sulfonamide] (obtained from Pfizer Inc, San Diego, Calif.) was suspended in DMSO and kept in small aliquots at −20 degrees. Phosphospecific antibody to pY1230/1234/1235 (autophosphorylation site) was obtained from Biosource International, Camarillo, Calif. Phosphospecific antibodies for pS473 on AKT and pT421/pS424 on p70 S6-Kinase were obtained from Cell Signaling, Beverly, Mass. Total c-Met and BCLXL antibodies were obtained from Santa Cruz Biotechnology, Santa Cruz, Calif. and β-actin from Sigma Aldrich (St. Louis, Mo.). For detecting melanoma differentiation proteins the following antibodies were used anti-tyrosinase monoclonal antibody (clone T311, Nova-castra, New Castle upon Tyne, UK), anti-gp-100 monoclonal antibody (MO 634, Dako corporation, Carpinteria, Calif.) and anti-MART-1/Melan-A monoclonal antibody (clone M2-7C10, Signet, Dedham, Mass.).
Cells were lysed in lysis buffer containing 20 mM Tris, pH 8.0; 150 mM NaCl, 10% glycerol, 1% NP40, 0.42% NaF, 1 mM PMSF, 1 mM Na3V04, 10 μl/ml Protease inhibitor cocktail (Sigma Aldrich, St. Louis, Mo.) as described previously (Maulik et al., Clin Cancer Res, 8: 620-7 (2002)). Cell lysates were separated by 7.5% or 10% SDS-PAGE electrophoresis under reducing conditions. Proteins were transferred to an immobilization membrane (Bio-Rad Laboratories, Hercules, Calif.) and immunoblotted using the enhanced chemiluminescence technique (PerkinElmer Life and analytical Sciences, Torrence, Calif.).
(§2) siRNA against c-Met was obtained from Dharmacon (Lafayette, Colo.). Briefly four pooled SiRNA duplexes were transiently transfected into MU melanoma cells by the Dharmacon protocol utilizing Oligofectamine obtained from Invitrogen (Carlsbad, Calif.). Mock transfection was done in parallel using SignalSilence control SiRNA (Cell Signaling Technology) as negative control. For studies on the effect of Si RNA on differentiation proteins MU melanoma cells were transfected with Si RNA as described above and cell lysates were prepared after 12 hrs and immunoblotting performed as described above.
It was hypothesized that SU11274 could not only induce a differentiated phenotype, but also MITF, tyrosinase and other melanocyte associated differentiation markers. […] The increase in the level of various differentiation proteins was determined by densiometric anaylsis after treatment with 10 μM SU11274.
(§3) The effect of si RNA against c-Met was also studied on the proliferation and differentiation of MU melanoma cells. […] The increase in the level of various differentiation proteins was determined by densiometric anaylsis after treatment with c-Met si RNA.

MU melanoma cells = assay: Proliferation / growth of melanoma cells; type: cell-based; settings: Homo sapiens
Experimental: as §1, §2
as §3, with “cells. […] SU11274 at 5 μM and 10 μM inhibited the growth of melanoma cells by 72% and 88% respectively.” for “cells.”

## Cc1[nH]c(/C=C2\C(=O)Nc3ccc(S(=O)(=O)N(C)c4cccc(Cl)c4)cc32)c(C)c1C(=O)N1CCN(C)CC1 [SU11274, (3Z)-N-(3-chlorophenyl)-3-({3,5-dimethyl-4-[(4-methylpiperazin-1-yl)carbonyl]-1H-pyrrol-2-yl}methylene)-N-methyl-2-oxo-2,3-dihydro-1H-indole-5-sulfonamide]
SCCHN cell lines [1]
  viability/growth: markedly decreased
SCCHN cell lines [2]
  cell motility: marked decrease
[3]
  IC50: 1000 to 2500 nM
MM-AN cells
  apoptosis: No apoptosis could be detected
[4]
  increase in levels of MART-1: 2 fold
  increase in levels of MITF: 3 fold
  increase in levels of gp-100: 6 fold
  increase in levels of tyrosinase: 12 fold
MU melanoma cells; 5 μM
  inhibition at 5 µM: 72%
MU melanoma cells; 10 μM
  inhibition at 10 µM: 88%
